Laboratory results: PubChem BioAssay (NCI)
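Cultured in 96-well plates, cells were exposed to test compound for 48 hours across five concentrations. Abbreviation: GI50, concentration required for 50% inhibition of growth. TGI marks complete inhibition of growth.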

Experiments:
Experiment in all cases: DTP human tumour cell line panel, 48 h
TK-10 renal = system: TK-10 renal
CCRF-CEM leukemia = system: CCRF-CEM leukemia
HCT-15 colon = system: HCT-15 colon
HL-60(TB) leukemia = system: HL-60(TB) leukemia
KM12 colon = system: KM12 colon
RXF 393 renal = system: RXF 393 renal
SK-MEL-2 melanoma = system: SK-MEL-2 melanoma
ACHN renal = system: ACHN renal
DU-145 prostate = system: DU-145 prostate
NCI-H226 lung = system: NCI-H226 lung
HOP-62 NSCLC = system: HOP-62 NSCLC
A498 renal = system: A498 renal
PC-3 prostate = system: PC-3 prostate
HOP-92 NSCLC = system: HOP-92 NSCLC
MOLT-4 leukemia = system: MOLT-4 leukemia
SNB-19 CNS = system: SNB-19 CNS
BT-549 breast = system: BT-549 breast
COLO 205 colon = system: COLO 205 colon
RPMI-8226 leukemia = system: RPMI-8226 leukemia
SR leukemia = system: SR leukemia
SW-620 colon = system: SW-620 colon
LOX IMVI melanoma = system: LOX IMVI melanoma
MDA-MB-231 breast = system: MDA-MB-231 breast
OVCAR-3 ovarian = system: OVCAR-3 ovarian
IGROV1 ovarian = system: IGROV1 ovarian
MCF7 breast = system: MCF7 breast
OVCAR-5 ovarian = system: OVCAR-5 ovarian
M14 melanoma = system: M14 melanoma
SNB-75 CNS = system: SNB-75 CNS
SN12C renal = system: SN12C renal
SF-268 CNS = system: SF-268 CNS
HT29 colon = system: HT29 colon
OVCAR-8 ovarian = system: OVCAR-8 ovarian
SF-295 CNS = system: SF-295 CNS
U251 CNS = system: U251 CNS
UACC-62 melanoma = system: UACC-62 melanoma
SF-539 CNS = system: SF-539 CNS
CAKI-1 renal = system: CAKI-1 renal
K-562 leukemia = system: K-562 leukemia
A549 NSCLC = system: A549 NSCLC
NCI-H23 lung = system: NCI-H23 lung
NCI-H522 lung = system: NCI-H522 lung
UO-31 renal = system: UO-31 renal
786-0 renal = system: 786-0 renal
UACC-257 melanoma = system: UACC-257 melanoma
MALME-3M melanoma = system: MALME-3M melanoma
SK-MEL-5 melanoma = system: SK-MEL-5 melanoma
HCT-116 colon = system: HCT-116 colon
NCI/ADR-RES ovarian = system: NCI/ADR-RES ovarian
NCI-H460 lung = system: NCI-H460 lung
SK-OV-3 ovarian = system: SK-OV-3 ovarian
EKVX NSCLC = system: EKVX NSCLC
SK-MEL-28 melanoma = system: SK-MEL-28 melanoma
OVCAR-4 ovarian = system: OVCAR-4 ovarian
HS 578T breast = system: HS 578T breast
HCC-2998 colon = system: HCC-2998 colon
T-47D breast = system: T-47D breast
MDA-MB-435 = system: MDA-MB-435

## COc1cc(Nc2ncc3c(C)nc(-c4cccc(C(F)(F)F)c4)n3n2)cc(OC)c1OC
TK-10 renal
  GI50: 2.98 µM
  TGI: 6.19 µM
CCRF-CEM leukemia
  GI50: 5.87 µM
  TGI: 19 µM
HCT-15 colon
  GI50: 3.78 µM
  TGI: 8.2 µM
HL-60(TB) leukemia
  GI50: 6.91 µM
  TGI: 16 µM
KM12 colon
  GI50: 3.05 µM
  TGI: 6.23 µM
RXF 393 renal
  GI50: 1.81 µM
  TGI: 5.42 µM
SK-MEL-2 melanoma
  GI50: 3.25 µM
  TGI: 7.28 µM
ACHN renal
  GI50: 1.95 µM
  TGI: 5.78 µM
DU-145 prostate
  GI50: 3.13 µM
  TGI: 6.26 µM
NCI-H226 lung
  GI50: 4.14 µM
  TGI: 7.72 µM
HOP-62 NSCLC
  GI50: 3.84 µM
  TGI: 7.51 µM
A498 renal
  GI50: 0.305 µM
  TGI: 5.86 µM
PC-3 prostate
  GI50: 4.32 µM
  TGI: 10.6 µM
HOP-92 NSCLC
  GI50: 1.74 µM
  TGI: 5.99 µM
MOLT-4 leukemia
  GI50: 6.85 µM
  TGI: 15.4 µM
SNB-19 CNS
  GI50: 4.64 µM
  TGI: 8.51 µM
BT-549 breast
  GI50: 4.05 µM
  TGI: 8.03 µM
COLO 205 colon
  GI50: 4.07 µM
  TGI: 7.49 µM
RPMI-8226 leukemia
  GI50: 6.45 µM
  TGI: 19.7 µM
SR leukemia
  GI50: 6.36 µM
  TGI: 17.5 µM
SW-620 colon
  GI50: 3.72 µM
  TGI: 7.62 µM
LOX IMVI melanoma
  GI50: 3.74 µM
  TGI: 7.58 µM
MDA-MB-231 breast
  GI50: 3.33 µM
  TGI: 6.97 µM
OVCAR-3 ovarian
  GI50: 4.28 µM
  TGI: 7.72 µM
IGROV1 ovarian
  GI50: 3.49 µM
  TGI: 11.2 µM
MCF7 breast
  GI50: 4.14 µM
  TGI: 7.82 µM
OVCAR-5 ovarian
  GI50: 3.65 µM
  TGI: 7.5 µM
M14 melanoma
  GI50: 4.03 µM
  TGI: 8.07 µM
SNB-75 CNS
  GI50: 3.09 µM
  TGI: 8.42 µM
SN12C renal
  GI50: 3.54 µM
  TGI: 7.14 µM
SF-268 CNS
  GI50: 4.19 µM
  TGI: 8.1 µM
HT29 colon
  GI50: 4.15 µM
  TGI: 7.69 µM
OVCAR-8 ovarian
  GI50: 4.09 µM
  TGI: 8.91 µM
SF-295 CNS
  GI50: 3.86 µM
  TGI: 8.15 µM
U251 CNS
  GI50: 3.71 µM
  TGI: 7.06 µM
UACC-62 melanoma
  GI50: 3.15 µM
  TGI: 6.34 µM
SF-539 CNS
  GI50: 3.98 µM
  TGI: 8.34 µM
CAKI-1 renal
  GI50: 0.747 µM
  TGI: 13.6 µM
K-562 leukemia
  GI50: 6.62 µM
  TGI: 19.6 µM
A549 NSCLC
  GI50: 3.51 µM
  TGI: 6.98 µM
NCI-H23 lung
  GI50: 4.07 µM
  TGI: 8.61 µM
NCI-H522 lung
  GI50: 4.18 µM
  TGI: 8.12 µM
UO-31 renal
  GI50: 1.82 µM
  TGI: 6.18 µM
786-0 renal
  GI50: 3.96 µM
  TGI: 7.92 µM
UACC-257 melanoma
  GI50: 3.88 µM
  TGI: 7.46 µM
MALME-3M melanoma
  GI50: 4.39 µM
  TGI: 9.17 µM
SK-MEL-5 melanoma
  GI50: 3.32 µM
  TGI: 6.51 µM
HCT-116 colon
  GI50: 3.49 µM
  TGI: 6.73 µM
NCI/ADR-RES ovarian
  GI50: 4.23 µM
  TGI: 11 µM
NCI-H460 lung
  GI50: 4.46 µM
  TGI: 13.6 µM
SK-OV-3 ovarian
  GI50: 2.24 µM
  TGI: 6.86 µM
EKVX NSCLC
  GI50: 4.19 µM
  TGI: 8 µM
SK-MEL-28 melanoma
  GI50: 4.44 µM
  TGI: 8.25 µM
OVCAR-4 ovarian
  GI50: 4.48 µM
  TGI: 9.81 µM
HS 578T breast
  GI50: 3.77 µM
  TGI: 13.6 µM
HCC-2998 colon
  GI50: 4.01 µM
  TGI: 7.86 µM
T-47D breast
  GI50: 2.95 µM
  TGI: 6.58 µM
MDA-MB-435
  GI50: 2.58 µM
  TGI: 5.78 µM

## COC1=C(C)C(=O)N2[C@@H]1[C@H](c1ccccc1)OC21C=CC(=O)C=C1
TK-10 renal
  GI50: 1.41 µM
  TGI: 6.29 µM
CCRF-CEM leukemia
  GI50: 0.925 µM
  TGI: 3.87 µM
HCT-15 colon
  GI50: 0.697 µM
  TGI: 2.21 µM
HL-60(TB) leukemia
  GI50: 0.922 µM
  TGI: 4.57 µM
KM12 colon
  GI50: 5.99 µM
  TGI: 12.9 µM
RXF 393 renal
  GI50: 1.42 µM
  TGI: 6.26 µM
SK-MEL-2 melanoma
  GI50: 6.92 µM
  TGI: 19.6 µM
ACHN renal
  GI50: 0.658 µM
  TGI: 1.36 µM
DU-145 prostate
  GI50: 3.69 µM
  TGI: 19.1 µM
NCI-H226 lung
  GI50: 9.79 µM
  TGI: > 31.1 µM
HOP-62 NSCLC
  GI50: 10.8 µM
  TGI: 24.9 µM
A498 renal
  GI50: 27.4 µM
  TGI: > 89.4 µM
PC-3 prostate
  GI50: 7.81 µM
  TGI: > 32 µM
HOP-92 NSCLC
  GI50: 2.48 µM
  TGI: 7.65 µM
MOLT-4 leukemia
  GI50: 2.23 µM
  TGI: 11 µM
SNB-19 CNS
  GI50: 42.8 µM
  TGI: > 100 µM
BT-549 breast
  GI50: 2.97 µM
  TGI: 9.47 µM
COLO 205 colon
  GI50: 2.56 µM
  TGI: 7.81 µM
RPMI-8226 leukemia
  GI50: 1.33 µM
  TGI: 8.44 µM
SR leukemia
  GI50: 0.673 µM
  TGI: 15.5 µM
SW-620 colon
  GI50: 0.923 µM
  TGI: 2.78 µM
LOX IMVI melanoma
  GI50: 0.757 µM
  TGI: 2.69 µM
MDA-MB-231 breast
  GI50: 2.77 µM
  TGI: 9.27 µM
OVCAR-3 ovarian
  GI50: 1.09 µM
  TGI: 3.74 µM
IGROV1 ovarian
  GI50: 6.83 µM
  TGI: 21.7 µM
MCF7 breast
  GI50: 1.07 µM
  TGI: 5.39 µM
OVCAR-5 ovarian
  GI50: 3.78 µM
  TGI: 11.6 µM
M14 melanoma
  GI50: 4.39 µM
  TGI: 12.5 µM
SNB-75 CNS
  GI50: 12.1 µM
  TGI: 50 µM
SN12C renal
  GI50: 3.64 µM
  TGI: 27.7 µM
SF-268 CNS
  GI50: 8.89 µM
  TGI: 31.9 µM
HT29 colon
  GI50: 1.28 µM
  TGI: 4.28 µM
OVCAR-8 ovarian
  GI50: 1.1 µM
  TGI: > 36.5 µM
SF-295 CNS
  GI50: 15.5 µM
  TGI: 46.9 µM
U251 CNS
  GI50: 5.61 µM
  TGI: 11 µM
UACC-62 melanoma
  GI50: 1.35 µM
  TGI: 5.51 µM
SF-539 CNS
  GI50: 4.73 µM
  TGI: 11.5 µM
CAKI-1 renal
  GI50: 0.804 µM
  TGI: 2.39 µM
K-562 leukemia
  GI50: 1.11 µM
  TGI: > 67 µM
A549 NSCLC
  GI50: 10.8 µM
  TGI: 38.9 µM
NCI-H23 lung
  GI50: 4.07 µM
  TGI: 18.5 µM
NCI-H522 lung
  GI50: 0.555 µM
  TGI: 1.35 µM
UO-31 renal
  GI50: 1.31 µM
  TGI: 3.88 µM
786-0 renal
  GI50: 2.86 µM
  TGI: 8.22 µM
UACC-257 melanoma
  GI50: 4.97 µM
  TGI: 15.5 µM
MALME-3M melanoma
  GI50: 1.08 µM
  TGI: 4.32 µM
SK-MEL-5 melanoma
  GI50: 5.05 µM
  TGI: 9.94 µM
HCT-116 colon
  GI50: 0.984 µM
  TGI: 3.81 µM
NCI/ADR-RES ovarian
  GI50: 3.36 µM
  TGI: > 47.4 µM
NCI-H460 lung
  GI50: 8.13 µM
  TGI: 21.8 µM
SK-OV-3 ovarian
  GI50: > 41.9 µM
  TGI: > 100 µM
EKVX NSCLC
  GI50: 10.7 µM
  TGI: > 33.8 µM
SK-MEL-28 melanoma
  GI50: 1.2 µM
  TGI: 6.68 µM
OVCAR-4 ovarian
  GI50: 3.51 µM
  TGI: 16.6 µM
HS 578T breast
  GI50: 12.5 µM
  TGI: > 40.9 µM
HCC-2998 colon
  GI50: 5.86 µM
  TGI: 10.9 µM
T-47D breast
  GI50: 1.73 µM
  TGI: 9.99 µM
MDA-MB-435
  GI50: 1.97 µM
  TGI: 7.32 µM
